Assay results published in ChEMBL document CHEMBL1201862, “PubChem BioAssay data set” (2004).
The source made the active and inactive calls.

Assays:
[1] = target: T1, Carboxy-terminal domain RNA polymerase II polypeptide A small phosphatase 1 (Homo sapiens, UniProt Q9GZU7); experiment: inhibitors of CTDSP1, concentration-response testing, biochemical assay, absorbance-based, actives from ultra-high-throughput screening (AID 540297); format: functional
T1 sequence (Q9GZU7 whole entry): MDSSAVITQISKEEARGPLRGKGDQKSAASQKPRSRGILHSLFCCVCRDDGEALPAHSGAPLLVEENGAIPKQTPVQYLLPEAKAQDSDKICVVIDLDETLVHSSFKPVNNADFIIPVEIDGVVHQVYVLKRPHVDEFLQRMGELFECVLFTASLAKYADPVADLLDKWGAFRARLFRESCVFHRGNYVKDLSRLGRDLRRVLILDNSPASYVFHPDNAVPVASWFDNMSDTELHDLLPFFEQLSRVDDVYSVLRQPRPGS

Genome polyprotein = Genome polyprotein (dengue virus type 2, UniProt P29990); experiment: Dengue-2 NS5 methyltransferase inhibitors, primary screen, biochemical, confirmation dose response (AID 588689); format: functional
[2] = target: T2, Long-chain-fatty-acid--AMP ligase FadD28 (Mycobacterium tuberculosis, UniProt P9WQ59); experiment: Fluorescence polarization aasay to screen for inhibitors that compete for the binding of FadD28 to a bisubstrate Measured in Biochemical System Using Plate Reader - 2147-01_Inhibitor_Dose_CherryPick_Activity.; format: functional, Mycobacterium tuberculosis H37Rv
T2 sequence (P9WQ59 whole entry): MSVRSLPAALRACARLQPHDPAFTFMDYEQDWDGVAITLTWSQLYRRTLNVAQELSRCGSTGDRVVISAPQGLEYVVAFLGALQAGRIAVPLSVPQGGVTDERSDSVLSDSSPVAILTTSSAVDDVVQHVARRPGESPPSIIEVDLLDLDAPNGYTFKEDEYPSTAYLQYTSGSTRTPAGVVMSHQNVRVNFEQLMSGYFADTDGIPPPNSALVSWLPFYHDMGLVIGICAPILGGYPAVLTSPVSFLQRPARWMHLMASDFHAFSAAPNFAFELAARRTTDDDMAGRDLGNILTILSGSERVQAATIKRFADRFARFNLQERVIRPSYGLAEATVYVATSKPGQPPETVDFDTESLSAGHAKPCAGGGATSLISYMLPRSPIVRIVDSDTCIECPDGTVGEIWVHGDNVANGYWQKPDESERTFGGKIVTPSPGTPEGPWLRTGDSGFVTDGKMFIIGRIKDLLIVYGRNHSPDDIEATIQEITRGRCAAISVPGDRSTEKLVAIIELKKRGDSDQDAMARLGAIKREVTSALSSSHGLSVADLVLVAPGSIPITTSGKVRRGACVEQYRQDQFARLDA

[3] = A cytotoxicity screen of small molecule inhibitors of the PhoP region in Salmonella typhi identified in the primary screen. [Related pubchem assays: 1850, 1864, 1985 ]; format: functional
[4] = target: T3, Adenosylmethionine-8-amino-7-oxononanoate aminotransferase (Mycobacterium tuberculosis, UniProt P9WQ81); experiment: Mycobacterium tuberculosis BioA enzyme inhibitor Measured in Biochemical System Using Plate Reader - 2163-02_Inhibitor_Dose_CherryPick_Activity.; format: functional, Mycobacterium tuberculosis UT205
T3 sequence (P9WQ81 whole entry): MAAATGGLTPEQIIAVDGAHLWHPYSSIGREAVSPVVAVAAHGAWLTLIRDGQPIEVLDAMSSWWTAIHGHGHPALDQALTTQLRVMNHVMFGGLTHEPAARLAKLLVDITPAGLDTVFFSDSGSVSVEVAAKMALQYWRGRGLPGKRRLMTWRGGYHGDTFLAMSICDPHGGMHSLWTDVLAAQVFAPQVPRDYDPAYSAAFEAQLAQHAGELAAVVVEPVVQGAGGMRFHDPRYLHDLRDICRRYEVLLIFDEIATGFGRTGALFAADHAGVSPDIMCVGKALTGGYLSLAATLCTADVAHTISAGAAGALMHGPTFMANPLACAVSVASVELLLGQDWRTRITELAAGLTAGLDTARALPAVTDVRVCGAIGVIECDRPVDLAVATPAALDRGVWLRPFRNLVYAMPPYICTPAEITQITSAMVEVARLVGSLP

[5] = target: DNA dC->dU-editing enzyme APOBEC-3G (Homo sapiens, UniProt Q9HC16); experiment: Dose Response confirmation of small molecule APOBEC3G DNA Deaminase Inhibitors via a fluorescence-based single-stranded DNA deaminase assay. [Related pubchem assays (depositor defined):AID493012, AID493028]; format: functional
[6] = target: FAD-linked sulfhydryl oxidase ALR (Homo sapiens, UniProt P55789); experiment: inhibitors of human ALR sulfhydryl oxidase, dose response, biochemical, H2O2 detection, luminescence, cherry-pick (AID 493248)
Coagulation factor XII = target: T4, Coagulation factor XII (Homo sapiens, UniProt P00748); format: functional;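 note: activated factor XIIa alpha cleaving a fluorogenic AMC peptide substrate; inhibitor potency from loss of enzyme activity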
T4 sequence (P00748 whole entry): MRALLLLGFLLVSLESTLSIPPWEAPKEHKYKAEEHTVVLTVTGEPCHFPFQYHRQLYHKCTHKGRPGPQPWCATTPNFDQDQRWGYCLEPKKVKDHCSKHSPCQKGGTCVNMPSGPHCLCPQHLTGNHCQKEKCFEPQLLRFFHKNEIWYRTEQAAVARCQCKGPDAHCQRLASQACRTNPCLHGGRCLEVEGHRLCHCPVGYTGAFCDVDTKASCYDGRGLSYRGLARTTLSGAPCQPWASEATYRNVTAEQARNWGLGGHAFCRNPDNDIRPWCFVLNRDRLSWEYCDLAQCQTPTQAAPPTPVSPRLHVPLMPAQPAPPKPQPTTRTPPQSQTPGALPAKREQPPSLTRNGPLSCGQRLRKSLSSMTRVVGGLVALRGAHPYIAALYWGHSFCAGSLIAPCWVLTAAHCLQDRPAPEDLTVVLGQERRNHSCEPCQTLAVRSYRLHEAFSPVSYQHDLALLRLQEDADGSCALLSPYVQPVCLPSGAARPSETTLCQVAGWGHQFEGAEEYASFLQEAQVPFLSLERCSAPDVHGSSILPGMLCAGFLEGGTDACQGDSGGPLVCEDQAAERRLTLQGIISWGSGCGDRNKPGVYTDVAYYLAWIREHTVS

[7] = target: T5, Hepatocyte nuclear factor 4-alpha (Homo sapiens, UniProt P41235); format: functional, cell-based;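 note: biochemical luminescence-based dose-response counterscreen measuring inhibition of HNF4 dimerization, run alongside a screen for blockers of ABHD5–perilipin-5 interaction; split luciferase complementation of HNF4 fusion proteins in cell lysate measuring dimerization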
T5 sequence (P41235 whole entry): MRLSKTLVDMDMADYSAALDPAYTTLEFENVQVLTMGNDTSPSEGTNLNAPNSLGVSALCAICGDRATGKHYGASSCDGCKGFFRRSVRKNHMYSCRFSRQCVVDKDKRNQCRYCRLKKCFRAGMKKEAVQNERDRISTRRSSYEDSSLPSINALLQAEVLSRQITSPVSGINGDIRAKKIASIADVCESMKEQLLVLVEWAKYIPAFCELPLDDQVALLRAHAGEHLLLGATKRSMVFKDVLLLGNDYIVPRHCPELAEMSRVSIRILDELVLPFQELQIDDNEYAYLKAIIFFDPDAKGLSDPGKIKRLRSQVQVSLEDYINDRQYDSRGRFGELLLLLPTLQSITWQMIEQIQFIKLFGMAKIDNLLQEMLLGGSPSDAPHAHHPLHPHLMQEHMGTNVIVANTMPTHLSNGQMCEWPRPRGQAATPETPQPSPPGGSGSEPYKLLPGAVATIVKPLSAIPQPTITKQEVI

[8] = inhibitors of SNCA 5'UTR-driven reporter translation, confirmation, H4 neuroglioma cells, luminescence (AID 1988); format: functional, cell-based
[9] = inhibitors of firefly luciferase expression or activity, dose response, H4 neuroglioma cells, luminescence (AID 1990); format: functional, cell-based
[10] = cytotoxicity in HEK-293T cells, dose response, cytotoxicity control for TCR NF-kB inhibitor project, luminescence, T-cell screen hits (AID 489026); format: functional, cell-based;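 note: cells exposed to compound about 14 hours before the viability readout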
[11] = Luminescence Cell-Based Dose Response HTS to Identify Inhibitors of 5'UTR Stem-Loop Driven Prion Protein mRNA Translation in H4 Neuroglioblastoma Cells. [Related pubchem assays: 1827 (Project Summary), 1813 (Primary HTS)]; format: functional
Protein skinhead-1 = target: T6, Protein skinhead-1 (Caenorhabditis elegans, UniProt P34707); format: functional
T6 sequence (P34707 whole entry): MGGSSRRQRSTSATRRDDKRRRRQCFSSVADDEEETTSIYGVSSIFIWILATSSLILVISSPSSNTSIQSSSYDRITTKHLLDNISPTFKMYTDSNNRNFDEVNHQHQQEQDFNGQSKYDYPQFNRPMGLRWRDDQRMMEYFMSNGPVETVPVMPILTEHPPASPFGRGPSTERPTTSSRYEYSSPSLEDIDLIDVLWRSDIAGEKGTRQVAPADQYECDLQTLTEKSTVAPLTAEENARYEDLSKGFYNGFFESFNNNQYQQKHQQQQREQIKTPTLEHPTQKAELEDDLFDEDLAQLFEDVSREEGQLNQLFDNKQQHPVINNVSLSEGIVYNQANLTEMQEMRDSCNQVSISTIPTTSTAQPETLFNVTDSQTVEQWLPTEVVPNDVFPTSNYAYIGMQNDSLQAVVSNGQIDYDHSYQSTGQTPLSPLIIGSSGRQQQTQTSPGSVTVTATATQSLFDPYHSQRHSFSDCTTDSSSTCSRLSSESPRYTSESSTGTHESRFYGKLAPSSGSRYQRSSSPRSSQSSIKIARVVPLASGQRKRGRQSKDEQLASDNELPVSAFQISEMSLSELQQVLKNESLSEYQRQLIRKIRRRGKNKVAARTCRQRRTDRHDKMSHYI

BJ [12] = experiment: cells; format: functional, cell-based; settings: Homo sapiens
[13] = cytotoxicity toward DRD oncogenic fibroblasts, dose response, cell-based, non-viral oncogenic, luminescence (AID 1934); format: functional; settings: Homo sapiens
BJ [14] = experiment: cytotoxicity toward BJ-TERT fibroblasts, dose response, cell-based, RAS-independent, luminescence (AID 1933); format: functional; settings: Homo sapiens
BJ [15] = experiment: cytotoxicity toward BJ-TERT-LT-ST fibroblasts, dose response, cell-based, RAS-independent, luminescence (AID 1935); format: functional; settings: Homo sapiens;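 note: BJ fibroblasts immortalized with TERT plus LT and ST oncogenes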
[16] = target: T7, Heat shock factor protein 1 (Mus musculus, UniProt P38532); experiment: inhibition of MG132-induced HSE-luciferase signal, confirmation, cell-based, NIH3T3, luminescence, dose retest (AID 2382); format: functional;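 note: NIH3T3 fibroblasts with HSF1-driven luciferase reporter stressed by proteasome inhibitor MG132; luminescence from HSF1-driven luciferase expression after 8 hours of MG132 stress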
T7 sequence (P38532 whole entry): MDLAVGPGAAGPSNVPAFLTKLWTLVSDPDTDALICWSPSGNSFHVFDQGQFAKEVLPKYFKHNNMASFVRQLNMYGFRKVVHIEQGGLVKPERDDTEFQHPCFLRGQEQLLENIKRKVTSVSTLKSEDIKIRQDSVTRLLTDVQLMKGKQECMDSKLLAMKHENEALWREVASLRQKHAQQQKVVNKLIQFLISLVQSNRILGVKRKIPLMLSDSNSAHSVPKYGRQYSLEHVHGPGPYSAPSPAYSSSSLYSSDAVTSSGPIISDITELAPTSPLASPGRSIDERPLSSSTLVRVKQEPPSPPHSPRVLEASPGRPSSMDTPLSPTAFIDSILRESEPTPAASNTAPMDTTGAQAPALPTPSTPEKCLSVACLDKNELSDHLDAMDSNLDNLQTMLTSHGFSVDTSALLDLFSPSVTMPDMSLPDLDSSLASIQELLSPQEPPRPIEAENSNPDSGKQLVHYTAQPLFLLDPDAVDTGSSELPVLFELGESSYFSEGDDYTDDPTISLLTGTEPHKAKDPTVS

Chain of DNA dC->dU-editing enzyme APOBEC-3G (Q9HC16 whole entry): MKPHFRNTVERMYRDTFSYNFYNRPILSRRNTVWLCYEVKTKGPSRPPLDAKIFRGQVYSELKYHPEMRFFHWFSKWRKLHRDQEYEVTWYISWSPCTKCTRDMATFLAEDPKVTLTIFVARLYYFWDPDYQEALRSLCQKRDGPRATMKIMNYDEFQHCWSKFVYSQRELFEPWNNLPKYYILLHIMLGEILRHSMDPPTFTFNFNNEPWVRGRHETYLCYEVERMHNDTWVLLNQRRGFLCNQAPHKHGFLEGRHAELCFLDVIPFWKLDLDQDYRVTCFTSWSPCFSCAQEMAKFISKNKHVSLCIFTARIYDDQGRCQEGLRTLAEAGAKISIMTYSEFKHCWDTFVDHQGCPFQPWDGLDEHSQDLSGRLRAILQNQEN
Chain of FAD-linked sulfhydryl oxidase ALR (P55789 whole entry): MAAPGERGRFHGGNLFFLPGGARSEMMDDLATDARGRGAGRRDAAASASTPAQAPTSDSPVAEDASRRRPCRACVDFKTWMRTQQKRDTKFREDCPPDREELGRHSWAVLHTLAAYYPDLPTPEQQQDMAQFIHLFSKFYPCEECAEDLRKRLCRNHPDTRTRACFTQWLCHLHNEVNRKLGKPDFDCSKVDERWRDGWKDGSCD
Chain of Genome polyprotein (P29990 2492-3391 limits assumed): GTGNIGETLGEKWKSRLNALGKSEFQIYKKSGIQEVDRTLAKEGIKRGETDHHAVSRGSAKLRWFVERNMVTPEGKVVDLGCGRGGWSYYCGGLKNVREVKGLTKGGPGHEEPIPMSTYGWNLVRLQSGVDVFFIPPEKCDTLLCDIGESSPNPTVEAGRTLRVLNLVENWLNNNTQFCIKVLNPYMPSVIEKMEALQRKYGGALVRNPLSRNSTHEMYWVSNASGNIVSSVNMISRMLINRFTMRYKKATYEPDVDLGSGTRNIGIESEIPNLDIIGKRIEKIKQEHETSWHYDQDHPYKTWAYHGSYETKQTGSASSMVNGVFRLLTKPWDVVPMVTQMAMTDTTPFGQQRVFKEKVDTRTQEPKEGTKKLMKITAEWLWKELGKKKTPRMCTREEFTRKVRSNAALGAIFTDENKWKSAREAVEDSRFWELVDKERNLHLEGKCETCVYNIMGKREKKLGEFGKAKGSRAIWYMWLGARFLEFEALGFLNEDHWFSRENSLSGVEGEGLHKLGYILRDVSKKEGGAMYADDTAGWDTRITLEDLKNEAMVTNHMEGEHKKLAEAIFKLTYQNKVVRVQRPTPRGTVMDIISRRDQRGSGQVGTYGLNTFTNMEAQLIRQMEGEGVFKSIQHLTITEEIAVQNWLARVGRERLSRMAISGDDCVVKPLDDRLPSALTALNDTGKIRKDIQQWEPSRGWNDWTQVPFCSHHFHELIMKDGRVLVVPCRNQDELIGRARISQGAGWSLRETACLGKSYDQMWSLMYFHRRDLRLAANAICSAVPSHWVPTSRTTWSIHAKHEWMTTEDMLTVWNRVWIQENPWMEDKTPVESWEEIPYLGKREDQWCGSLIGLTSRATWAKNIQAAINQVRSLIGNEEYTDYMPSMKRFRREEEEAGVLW

CCOc1cc(/C=N/NC2=NC(=O)C(CC(=O)O)S2)ccc1OCc1ccc(Cl)cc1 (stereo not drawn)
IC50 [1]: 7.12 µM (active)
IC50 (Genome polyprotein): 47.9 µM (active)

CN(C)c1ccc(/C=C2/C(=O)N(CCc3ccc(F)cc3)C(=O)N=C2O)cc1
AC50 [2]: 23.4 µM (active)

Cc1c(C)n(C)c2ccc(C(=O)NCc3cccs3)cc12
AC50 [2]: 56.8 µM (active)
EC50 [3]: > 50 µM (active)

O=C(Nc1ccccc1)N1CCN(Cc2ccc3c(c2)OCO3)CC1
AC50 [4]: 2.63 µM (active)

O=C(O)c1ccc(COc2ccccc2/C=C2\NC(=O)N(Cc3ccc(F)cc3)C2=O)cc1
IC50 [1]: 6.42 µM (active)

CCCCn1c(-c2ccco2)n[nH]c1=S
IC50 [5]: 8.1 µM (active)
AC50 [6]: 33.6 µM (active)

COC(=O)C(NC(=O)c1ccco1)(Nc1nc(C)cs1)C(F)(F)F (stereo not drawn)
IC50 (Coagulation factor XII): > 50 µM (inactive)

O=C(NCc1ccccc1)C(c1cccc2ccccc12)n1c(=O)c(-c2ccco2)nc2ccccc21 (stereo not drawn)
IC50 [7]: 2.77 µM (active)

Cc1cccc(-c2ccc3c(c2)C2CC3CCN2)c1 (stereo not drawn)
AC50 [4]: 4.64 µM (active)

COc1ccccc1NC(=O)Cn1cnc2c(oc3nc4c(cc32)CCCC4)c1=O
AC50 [2]: 77.8 µM (active)

Cc1nc(Nc2nc(O)c3c(n2)CCC3)nc2ccccc12
EC50 [8]: 9.61 µM (active)
EC50 [9]: > 120 µM (not active)
IC50 [10]: > 80 µM (inactive)
EC50 [11]: > 120 µM (not active)

CCc1c(C)nc2ncnn2c1Nc1ccc(C#N)c(Cl)c1
AC50 [4]: 10.5 µM (active)

Cc1cccc(N2N=C(C(=O)N3CC(=O)Nc4ccccc43)CCC2=O)c1
IC50 (Coagulation factor XII): > 50 µM (inactive)

O=C(c1ccc(Cl)cc1)c1cc([N+](=O)[O-])ccc1N1CCOCC1
IC50 (Protein skinhead-1): 56.9 µM (inactive)
EC50 (BJ [12]): 19 µM (active)
EC50 [13]: 1.17 µM (active)
EC50 (BJ [14]): 1.51 µM (active)
EC50 (BJ [15]): 1.19 µM (inconclusive)
IC50 [10]: > 80 µM (inactive)

O=[N+]([O-])c1ccc(Cl)c(/C=N/n2c(S)nnc2-c2ccncc2)c1
IC50 [5]: 4.79 µM (active)

CC(C)(C)NC(=O)C(c1ccnc2ccccc12)n1c(=O)c(-c2ccco2)nc2ccccc21 (stereo not drawn)
IC50 [7]: 3.18 µM (active)

COc1ccc(/C=N/NC(=O)CCn2cnc3ccccc32)cc1
IC50 (Coagulation factor XII): > 50 µM (inactive)

COC(=O)c1ccc(Oc2nc(NC(C)C)nc(SC)n2)cc1
IC50 (Coagulation factor XII): > 50 µM (inactive)

CC1=C(C(=O)Nc2ccc(C)cc2)C(c2ccc(C)o2)C2=C(O)CC(C)(C)CC2=N1 (stereo not drawn)
IC50 (Coagulation factor XII): > 50 µM (inactive)
EC50 [16]: > 195 µM (not active)

Cc1cc(Cl)c(S(=O)(=O)NC(C(=O)O)c2ccccc2)cc1OCC(N)=O (stereo not drawn)
IC50 [1]: 12.9 µM (active)

Oc1c(C(c2ccccc2)N2CCCCC2)ccc2ccccc12 (stereo not drawn)
IC50 [7]: 0.828 µM (active)
